Read-outs that look alike come from different tables or passages of the source.
Tests used:
[1] = cited from earlier work
migraine (편두통) = conditions: cited from earlier work; for pain freedom at 2 h / pain relief at 2 h: lowest oral dose; for pain freedom: nasal zolmitriptan
Zolmitriptan pKa = type: physicochemical

## CNCCc1c[nH]c2ccc(C[C@H]3COC(=O)N3)cc12 [N-데스메틸 졸미트립탄]
[1]; in vivo
  metabolite concentration relative to zolmitriptan concentration: 2/3

## CNS(=O)(=O)CCc1ccc2[nH]cc(C3CCN(C)CC3)c2c1 [나라트립탄]
Migraine (편두통)
  pain freedom at 2 h: 18%
  pain relief at 2 h: 49%

## CNS(=O)(=O)Cc1ccc2[nH]cc(CCN(C)C)c2c1 [수마트립탄]
[1]; oral tablet
  Tmax: ~2 h
[1]; oral, as succinate
  oral bioavailability: ~15%
Migraine (편두통); injected
  onset of action: ≤ 10 min

## CN(C)CCc1c[nH]c2ccc(C[C@H]3COC(=O)N3)cc12 [졸미트립탄]
[1]; nasal administration
  Tmax: ~1.5 h
Migraine (편두통)
  pain freedom at 2 h: 29%
  pain relief at 2 h: 62%
Migraine (편두통); 1 h
  pain freedom: ~10%
Migraine (편두통); 2 h
  pain freedom: < 25%
Migraine (편두통); 4 h
  pain freedom: < 40%
Migraine (편두통); placebo-controlled clinical trials
  efficacy and tolerability (in words): 효과적이고 우수한 내약성을 갖는 것으로 보여졌다
Zolmitriptan pKa
  pKa (weak base): 9.6

From patent publication KR20200032170A, “편두통 및 군발성 두통의 치료를 위한 졸미트립탄의 치료적 농도를 신속하게 달성하는 방법” (조사노 파마 코포레이션, priority 2017, dated 2019)
